Literature values in patent publication US7094805B2, “Total synthesis of merrilactone A” (The Trustees of Columbia University in the City of New York, priority 2001, dated 2006).

Test system: fetal rat cortical neurons

C[C@@]12COC(=O)[C@]1(C)[C@@H]1O[C@]3(C)[C@@H](O)C[C@]24OC(=O)C[C@]143 (racemic) [compound 1, merrilactone A]
promotion of neurite outgrowth (general statement): promote neurite outgrowth
concentrations at which neurite outgrowth is greatly promoted (preliminary studies, natural merrilactone A, "at concentrations as low as"): 0.1 to 10 µmol
